Here are results for four compounds from PubChem BioAssay (NCI).

Test systems include OVCAR-3 ovarian; NCI-H226 lung; NCI-H460 lung; CCRF-CEM leukemia; HCC-2998 colon; U251 CNS; EKVX NSCLC; COLO 205 colon; SK-MEL-28 melanoma; UACC-257 melanoma.
Test in all cases: NCI anticancer screen, dose series, 48 h

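Test compounds were applied to cells in 96-well plates for 48 hours at 5 doses. The concentration for 50% growth inhibition is given as GI50. At the TGI there is no net growth.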 Bounds are passed on as bounds.

On to `CC(C)CCSC1=CC(=O)c2ccccc2C1=O`, for which the GI50 with OVCAR-3 ovarian was 1170 nM; in the assay on NCI-H226 lung, 6820 nM; in the assay with NCI-H460 lung it was 16700 nM; in the assay on CCRF-CEM leukemia it was 215 nM; in the assay on HCC-2998 colon it was 21500 nM; in the assay with U251 CNS it was 8110 nM. Moreover, the GI50 in the assay on EKVX NSCLC was 4500 nM; with COLO 205 colon, 10900 nM; with SK-MEL-28 melanoma it was 5700 nM; in the assay with UACC-257 melanoma it was 13300 nM. The TGI came to 2390 nM in the assay on OVCAR-3 ovarian; 32800 nM in the assay with NCI-H226 lung; 42900 nM with NCI-H460 lung; 620 nM in the assay on CCRF-CEM leukemia; 45700 nM in the assay on HCC-2998 colon; 21500 nM in the assay with U251 CNS. The TGI with EKVX NSCLC stood at 16600 nM; in the assay on COLO 205 colon, 22900 nM; in the assay with SK-MEL-28 melanoma, 10700 nM; with UACC-257 melanoma, 26700 nM.

Regarding `O=C1/C=C/[C@@H](O)[C@@H]2C[C@@H](O)C[C@H]2/C=C/CCC[C@H](CCc2ccc(C(F)(F)F)cc2)O1`, the GI50 in the assay with OVCAR-3 ovarian is 264 nM; with NCI-H226 lung it was 53.9 nM; in the assay with NCI-H460 lung, 388 nM; in the assay on CCRF-CEM leukemia, 314 nM; with HCC-2998 colon it was 238 nM; in the assay on U251 CNS, 272 nM. Further, the GI50 with EKVX NSCLC was 252 nM; with COLO 205 colon, 175 nM; in the assay with SK-MEL-28 melanoma, 40.5 nM; in the assay with UACC-257 melanoma it was 182 nM. Also, the TGI with OVCAR-3 ovarian is 690 nM; in the assay on NCI-H226 lung, 513 nM; in the assay with NCI-H460 lung, greater than 55400 nM; with CCRF-CEM leukemia it was 49000 nM; in the assay with HCC-2998 colon, 3870 nM; with U251 CNS, 21300 nM. The TGI in the assay on EKVX NSCLC is 6670 nM; in the assay on COLO 205 colon, 319 nM; in the assay on SK-MEL-28 melanoma, 361 nM; with UACC-257 melanoma, greater than 40200 nM.

Consider `O=C(Cc1nc2ccccc2s1)Nc1ccc(Cl)cc1`, for which the TGI in the assay with OVCAR-3 ovarian, with NCI-H226 lung, in the assay with NCI-H460 lung, in the assay with CCRF-CEM leukemia, in the assay on HCC-2998 colon and with U251 CNS was greater than 100000 nM each time. The TGI in the assay with EKVX NSCLC, in the assay on COLO 205 colon, in the assay with SK-MEL-28 melanoma and in the assay on UACC-257 melanoma was greater than 100000 nM each time.

Turning to `Cc1ncc(C(=O)Nc2ccc(CN3CCN(C)CC3)c(C(F)(F)F)c2)cc1C#Cc1cnc(N)c2cnccc12`, the GI50 in the assay with OVCAR-3 ovarian is 181 nM; in the assay with NCI-H226 lung it was 175 nM; in the assay on NCI-H460 lung, 64.7 nM; in the assay with CCRF-CEM leukemia, 90.6 nM; in the assay with HCC-2998 colon, 133 nM; in the assay with U251 CNS, 86.4 nM. The GI50 in the assay with EKVX NSCLC was 358 nM; in the assay with COLO 205 colon, 27.6 nM; in the assay with SK-MEL-28 melanoma, 18.1 nM; with UACC-257 melanoma, 68.9 nM. Further, the TGI in the assay with OVCAR-3 ovarian turned out to be 5980 nM; in the assay on NCI-H226 lung, 3090 nM; with NCI-H460 lung it was 1540 nM; in the assay with CCRF-CEM leukemia, 3460 nM; in the assay with HCC-2998 colon it was 15200 nM; in the assay on U251 CNS, 2350 nM. Besides, the TGI stood at 12900 nM with EKVX NSCLC, 3740 nM in the assay with COLO 205 colon, 376 nM with SK-MEL-28 melanoma and 1290 nM in the assay on UACC-257 melanoma.
